Reference: patent US20050004134A1, “Thiazole derivative and pharmaceutical use thereof” (priority 2001, published 2005)

| melting point [°C] | SMILES |
| --- | --- |
| 133.5 to 135 | CC(C)n1nc(-c2sc(C(=O)NC3CC3)nc2-c2ccccc2F)ccc1=O [Example 196, N-cyclopropyl-4-(2-fluorophenyl)-5-(1-isopropyl-6-oxo-1,6-dihydro-3-pyridazinyl)-1,3-thiazole-2-carboxamide] |
| 145.5 to 147 | CC(C)n1nc(-c2sc(C(=O)NC3CC3)nc2-c2cccc(F)c2)ccc1=O [Example 197, N-cyclopropyl-4-(3-fluorophenyl)-5-(1-isopropyl-6-oxo-1,6-dihydro-3-pyridazinyl)-1,3-thiazole-2-carboxamide] |
| 157 to 158 | CC(C)n1nc(-c2sc(C(=O)NC3CC3)nc2-c2ccc(F)cc2)ccc1=O [Example 198, N-cyclopropyl-4-(4-fluorophenyl)-5-(1-isopropyl-6-oxo-1,6-dihydro-3-pyridazinyl)-1,3-thiazole-2-carboxamide] |
| 118.5 to 119.5 | CC(C)n1nc(-c2sc(C(=O)NC3CC3)nc2-c2cccc(Cl)c2)ccc1=O [Example 199, 4-(3-chlorophenyl)-N-cyclopropyl-5-(1-isopropyl-6-oxo-1,6-dihydro-3-pyridazinyl)-1,3-thiazole-2-carboxamide] |
| 221 to 222.5 | O=C(NCc1ccccn1)c1nc(-c2ccccc2)c(-c2ccc(=O)[nH]n2)s1 [Example 200, 5-(6-oxo-1,6-dihydro-3-pyridazinyl)-4-phenyl-N-(2-pyridinylmethyl)-1,3-thiazole-2-carboxamide] |

More lines, now with the values behind:

| SMILES | melting point [°C] |
| --- | --- |
| CC(C)NC(=O)c1nc(-c2ccc(F)cc2)c(-c2ccc(=O)n(C(C)C)n2)s1 [Example 186, 4-(4-fluorophenyl)-N-isopropyl-5-(1-isopropyl-6-oxo-1,6-dihydro-3-pyridazinyl)-1,3-thiazole-2-carboxamide] | 122 to 123.5 |
| CC(C)NC(=O)c1nc(-c2cccc(Cl)c2)c(-c2ccc(=O)n(C(C)C)n2)s1 [Example 187, 4-(3-chlorophenyl)-N-isopropyl-5-(1-isopropyl-6-oxo-1,6-dihydro-3-pyridazinyl)-1,3-thiazole-2-carboxamide] | 105 to 106 |
| O=C(NC1CC1)c1nc(-c2ccccc2)c(-c2ccc(=O)[nH]n2)s1 [Example 188, N-cyclopropyl-5-(6-oxo-1,6-dihydro-3-pyridazinyl)-4-phenyl-1,3-thiazole-2-carboxamide] | > 250 |
| Cn1nc(-c2sc(C(=O)NC3CC3)nc2-c2ccccc2)ccc1=O [Example 189, N-cyclopropyl-5-(1-methyl-6-oxo-1,6-dihydro-3-pyridazinyl)-4-phenyl-1,3-thiazole-2-carboxamide] | 163 to 164 |
| CCn1nc(-c2sc(C(=O)NC3CC3)nc2-c2ccccc2)ccc1=O [Example 190, N-cyclopropyl-5-(1-ethyl-6-oxo-1,6-dihydro-3-pyridazinyl)-4-phenyl-1,3-thiazole-2-carboxamide] | 144 to 145 |
| CCCn1nc(-c2sc(C(=O)NC3CC3)nc2-c2ccccc2)ccc1=O [Example 191, N-cyclopropyl-5-(6-oxo-1-propyl-1,6-dihydro-3-pyridazinyl)-4-phenyl-1,3-thiazole-2-carboxamide] | 146 to 147 |
| CC(C)n1nc(-c2sc(C(=O)NC3CC3)nc2-c2ccccc2)ccc1=O [Example 192, N-cyclopropyl-5-(1-isopropyl-6-oxo-1,6-dihydro-3-pyridazinyl)-4-phenyl-1,3-thiazole-2-carboxamide] | 127 to 128 |
| C=CCn1nc([SH]2C=C(c3ccccc3)N=C2C(=O)NC2CC2)ccc1=O (stereo not drawn) [Example 193, S-(1-allyl-6-oxo-1,6-dihydro-3-pyridazinyl)-N-cyclopropyl-4-phenyl-1,3-thiazole-2-carboxamide] | 167.5 to 168.5 |
| O=C(NC1CC1)c1nc(-c2ccccc2)c(-c2ccc(=O)n(Cc3ccccc3)n2)s1 [Example 194, 5-(1-benzyl-6-oxo-1,6-dihydro-3-pyridazinyl)-N-cyclopropyl-4-phenyl-1,3-thiazole-2-carboxamide] | 151 to 152.5 |
